Like-named read-outs stand apart in the source and are kept apart here.
Experiments:
SARS-CoV PLpro [1] = biological target: T1, SARS-CoV PLpro (Severe acute respiratory syndrome coronavirus, UniProt P0C6X7); assay: biochemical; settings: for inhibition at 100 µM: read-out: inhibition of PLpro activity
SARS-CoV = assay: microbe, parasite or virus in culture; format: cell-based, SARS-CoV Urbani strain
SARS-CoV PLpro [2] = biological target: T1, SARS-CoV PLpro; format: biochemical
SARS-CoV PLpro [3] = biological target: T1, SARS-CoV PLpro; format: biochemical; remark: listed apart in the source
hUCH-L1 = biological target: T2, hUCH-L1 (Homo sapiens, UniProt P09936); assay: Inhibitor specificity assay, UCH-L1; format: biochemical; settings: Table 6; assayed with 100 μM inhibitor, ubiquitin-AMC substrate
T2 construct: purchased Biomol International
T2 sequence (P09936 1-223): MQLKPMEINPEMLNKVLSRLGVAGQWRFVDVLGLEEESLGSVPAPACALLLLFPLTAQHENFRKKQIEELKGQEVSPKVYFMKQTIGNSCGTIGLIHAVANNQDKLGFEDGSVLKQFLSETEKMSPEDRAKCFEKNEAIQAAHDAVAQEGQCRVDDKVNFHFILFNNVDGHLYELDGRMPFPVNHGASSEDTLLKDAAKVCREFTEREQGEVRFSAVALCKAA

hUCH-L3 = biological target: T3, hUCH-L3 (Homo sapiens, UniProt P15374); assay: Inhibitor specificity assay, UCH-L3; format: biochemical; settings: Table 6; assayed with 100 μM inhibitor, ubiquitin-AMC substrate
T3 construct: purchased Biomol International
T3 sequence (P15374 1-230): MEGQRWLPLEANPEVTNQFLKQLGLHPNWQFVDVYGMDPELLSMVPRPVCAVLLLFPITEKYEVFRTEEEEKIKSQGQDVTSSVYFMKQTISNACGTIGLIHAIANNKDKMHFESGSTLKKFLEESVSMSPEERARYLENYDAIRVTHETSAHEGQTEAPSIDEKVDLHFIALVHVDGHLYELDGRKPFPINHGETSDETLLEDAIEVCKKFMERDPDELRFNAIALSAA

HAUSP = biological target: T4, HAUSP (Homo sapiens, UniProt Q93009); assay: Inhibitor specificity assay, HAUSP; format: biochemical; settings: Table 6; assayed with 100 μM inhibitor, ubiquitin-AMC substrate
T4 construct: purchased Boston Biochem
T4 sequence (Q93009 whole entry): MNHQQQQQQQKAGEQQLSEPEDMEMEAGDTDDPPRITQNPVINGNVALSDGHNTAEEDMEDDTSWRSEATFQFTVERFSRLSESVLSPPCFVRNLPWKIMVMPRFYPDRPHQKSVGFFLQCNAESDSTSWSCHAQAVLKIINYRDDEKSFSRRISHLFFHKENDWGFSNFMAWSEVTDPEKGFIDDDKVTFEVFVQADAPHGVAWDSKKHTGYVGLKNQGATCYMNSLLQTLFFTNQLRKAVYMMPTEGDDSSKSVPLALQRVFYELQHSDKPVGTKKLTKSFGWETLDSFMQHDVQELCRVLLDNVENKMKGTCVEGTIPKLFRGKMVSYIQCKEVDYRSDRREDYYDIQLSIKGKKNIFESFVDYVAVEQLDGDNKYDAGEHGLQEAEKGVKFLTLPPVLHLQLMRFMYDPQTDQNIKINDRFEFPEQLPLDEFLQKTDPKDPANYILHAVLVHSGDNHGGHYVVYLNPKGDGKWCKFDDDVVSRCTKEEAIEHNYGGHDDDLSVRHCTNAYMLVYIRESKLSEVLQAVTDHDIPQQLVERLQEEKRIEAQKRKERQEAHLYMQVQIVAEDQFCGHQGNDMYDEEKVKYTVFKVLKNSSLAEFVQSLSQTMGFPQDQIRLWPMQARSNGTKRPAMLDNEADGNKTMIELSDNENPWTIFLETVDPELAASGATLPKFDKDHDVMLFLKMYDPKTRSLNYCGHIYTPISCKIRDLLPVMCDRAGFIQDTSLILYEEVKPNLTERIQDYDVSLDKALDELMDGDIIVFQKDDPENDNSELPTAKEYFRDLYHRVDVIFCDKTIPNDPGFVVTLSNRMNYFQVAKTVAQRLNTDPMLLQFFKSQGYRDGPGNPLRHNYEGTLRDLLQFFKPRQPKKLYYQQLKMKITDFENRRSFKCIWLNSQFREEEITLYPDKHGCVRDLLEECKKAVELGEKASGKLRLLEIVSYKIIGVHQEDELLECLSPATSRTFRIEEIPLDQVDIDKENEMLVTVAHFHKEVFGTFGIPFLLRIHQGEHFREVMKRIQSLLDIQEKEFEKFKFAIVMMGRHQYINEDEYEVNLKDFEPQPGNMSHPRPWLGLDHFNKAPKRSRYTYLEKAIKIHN

hUSP18 = biological target: T5, hUSP18 (Homo sapiens, UniProt Q9UMW8); assay: Inhibitor specificity assay, USP18; format: biochemical; settings: Table 6; assayed with 100 μM inhibitor, ISG15-AMC substrate
T5 construct: purchased Boston Biochem
T5 sequence (Q9UMW8 1-372): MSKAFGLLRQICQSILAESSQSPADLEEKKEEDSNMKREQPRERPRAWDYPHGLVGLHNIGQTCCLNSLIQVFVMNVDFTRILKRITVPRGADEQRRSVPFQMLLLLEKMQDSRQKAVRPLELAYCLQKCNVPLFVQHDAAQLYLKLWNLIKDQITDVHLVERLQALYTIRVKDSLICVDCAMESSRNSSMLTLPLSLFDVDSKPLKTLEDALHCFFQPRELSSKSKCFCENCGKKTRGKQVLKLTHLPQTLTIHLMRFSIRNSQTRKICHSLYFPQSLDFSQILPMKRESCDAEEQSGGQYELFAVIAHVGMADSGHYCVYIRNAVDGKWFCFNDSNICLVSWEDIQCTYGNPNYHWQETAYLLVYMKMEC

SARS-CoV PLpro [4] = biological target: T1, SARS-CoV PLpro; assay: biochemical; settings: read-out: percent inhibition of PLpro in primary screen
[5] = Severe acute respiratory syndrome coronavirus, Vero C1008
[6] = Severe acute respiratory syndrome coronavirus, Vero C1008, 48 h, read-out: EC50 of antiviral activity
[7] = read-out: IC50 (μM), enzyme inhibitory activity

With `C[C@@H](NC(=O)c1ccccc1Cl)c1ccc2ccccc2c1` [Compound 3, 2-Chloro-N—[(R)-1-(2-naphthyl)ethyl]benzamide] the IC50 (SARS-CoV PLpro [1]) was 14.5 ± 0.9 µM, the “fold decrease in inhibitory potency compared to 1b” value (SARS-CoV PLpro [1]) was 2 fold and the EC50 (SARS-CoV; [5]) was greater than 50 µM.
Work on `COc1ccc(CNC(=O)C2CCN([C@H](C)c3cccc4ccccc34)CC2)cc1` [Compound 63] yielded an IC50 (SARS-CoV PLpro [1]; read-out: IC50) of 0.34 µM and an EC50 (SARS-CoV; [5]) of 10 µM.
`Cc1cccc(C(=O)N[C@H](C)c2ccc3ccccc3c2)c1` [Compound 5a, 3-Methyl-N—[(R)-1-(2-naphthyl)ethyl]benzamide] showed an EC50 (SARS-CoV; [5]) greater than 50 µM.
`COc1ccccc1CNC(=O)C1CCN([C@H](C)c2cccc3ccccc23)CC1` [Compound 67] was tested, and the IC50 (SARS-CoV PLpro [1]; read-out: IC50) was 1.21 ± 0.04 µM.
`COc1cccc(CNC(=O)C2CCN([C@@H](C)c3ccc4ccccc4c3)CC2)c1` [Compound 61] showed an IC50 (SARS-CoV PLpro [1]) of 13.2 ± 0.6 µM and an EC50 (SARS-CoV; [5]) of 12 µM.
`Cc1ccc(N)cc1C(=O)NC(C)(C)c1cccc2ccccc12` [Compound 29, 5-Amino-2-methyl-N-[1-methyl-1-(1-naphthyl)ethyl]benzamide] was tested, and the EC50 (SARS-CoV; [5]) was greater than 50 µM.
`C[C@H](c1cccc2ccccc12)N1CCC(C(=O)NCc2ccc3c(c2)OCO3)CC1` [Compound 69] was tested, and the EC50 (SARS-CoV; [5]) was 3 µM.
`Cc1ccc(CNC(=O)OC(C)(C)C)cc1C(=O)N[C@H](C)c1cccc2ccccc12` [Compound 47, 5-N-tert-Butoxycarbonylmethylamino-2-methyl-N^0—[(R)-1-(1-naphthyl)ethyl]benzamide] gave an EC50 (SARS-CoV; [5]) greater than 50 µM.
In the case of `Cc1ccc(N)cc1C(=O)N[C@H](C)c1cccc2ccccc12` [Compound 24, 5-Amino-2-methyl-N—[(R)-1-(1-naphthyl)ethyl]benzamide], the mode of inhibition (SARS-CoV PLpro [2]) is reported as “competitive inhibitor”, the “PLpro activity recovered after dialysis” value (SARS-CoV PLpro [3]) is reported as “Approximately 25%” and the IC50 (hUCH-L1) is reported as greater than 100 µM. It also gave an IC50 (hUCH-L3) greater than 100 µM, an IC50 (HAUSP) greater than 100 µM and an IC50 (hUSP18) greater than 100 µM. For the same molecule, the “toxicity in Vero E6 cells” value (Vero E6 cells) was “without toxicity up to the highest concentration tested”.
Molecule `COc1cccc(CNC(=O)C2CCN([C@H](C)c3ccc4ccccc4c3)CC2)c1` [Compound 62] has an IC50 (SARS-CoV PLpro [1]) of 5.8 ± 0.1 µM.
In the case of `CNCc1ccc(C)c(C(=O)N[C@H](C)c2cccc3ccccc23)c1` [Compound 49], the EC50 (SARS-CoV; [5]) is reported as 5.2 ± 0.3 µM.
`CCC(NC(=O)c1ccccc1C)c1ccc2ccccc2c1` (racemic) [Compound 14, 2-Methyl-N-[1-(2-naphthyl)propyl]benzamide] was tested, and the IC50 (SARS-CoV PLpro [1]) was greater than 200 µM.
In the case of `Cc1ccc(N)cc1C(=O)NC(C)c1ccnc2ccccc12` (racemic) [Compound 50], the IC50 (SARS-CoV PLpro [1]) is reported as 1.85 µM.
Work on `Cc1ccccc1C(=O)N[C@H](C)c1cccc2ccccc12` [Compound 5h, 2-Methyl-N—[(R)-1-(1-naphthyl)ethyl]benzamide] yielded an EC50 (SARS-CoV; [5]) of 10 ± 1.2 µM, an EC50 (SARS-CoV; [6]) of 10 to 15 µM and an IC50 (hUCH-L1) greater than 100 µM. For the same molecule, the IC50 (hUCH-L3) was greater than 100 µM and the “toxicity in Vero E6 cells” value (Vero E6 cells) was “without toxicity up to the highest concentration tested”.
With `C[C@@H](c1cccc2ccccc12)N1CCC(C(=O)NCc2ccc3c(c2)OCO3)CC1` [Compound 68] the IC50 (SARS-CoV PLpro [1]; read-out: IC50) was 0.56 µM and the EC50 (SARS-CoV; [5]) was 3 µM.
`Cc1ccccc1C(=O)NC(c1ccccc1)c1ccc2ccccc2c1` (stereo not shown) [Compound 17, 2-Methyl-N-[1-(2-naphthyl)benzyl]benzamide] showed an IC50 (SARS-CoV PLpro [1]; [7]) greater than 200 µM.
With `Cc1cc(N)ccc1C(=O)NC(C)c1ccnc2ccccc12` (racemic) [Compound 52] the IC50 (SARS-CoV PLpro [1]) was 2.3 µM.
In the case of `Cc1ccccc1C(=O)NC(C)c1ccc2ccccc2c1` (racemic) [Compound 1, 2-methyl-N-[1-(2-naphthyl)ethyl]benzamide], the EC50 (SARS-CoV; [5]) is reported as greater than 50 µM and the inhibition at 20 µM (SARS-CoV PLpro [4]) is reported as greater than 35%.
“5-Methylamino-2-methyl-N—[(R)-1-(1-naphthyl)ethyl]benzamide [Compound 2]” showed an EC50 (SARS-CoV; Table 5, antiviral activity against SARS-CoV, highest concentration tested 50 uM, read-out: EC50) of 6 ± 0.1 µM.
`CC(=O)Nc1ccc(C)c(C(=O)N[C@H](C)c2cccc3ccccc23)c1` [Compound 25, 5-N-Acetylamino-2-methyl-N—[(R)-1-(1-naphthyl)ethyl]benzamide] was tested, and the IC50 (SARS-CoV PLpro [1]; read-out: IC50) was 2.64 ± 0.04 µM, the IC50 (SARS-CoV PLpro [1]; [7]) was 2.64 ± 0.04 µM and the IC50 (SARS-CoV PLpro [1]; read-out: IC50 values (μM) PLpro) was 2.6 µM. The EC50 (SARS-CoV; [5]) was 13.1 ± 0.7 µM, the EC50 (SARS-CoV; [6]) was 10 to 15 µM and the IC50 (hUCH-L1) was greater than 100 µM. For the same molecule, the IC50 (hUCH-L3) was greater than 100 µM and the “toxicity in Vero E6 cells” value (Vero E6 cells) was “without toxicity up to the highest concentration tested”.
`C[C@@H](NC(=O)c1ccccc1O)c1ccc2ccccc2c1` [Compound 5g, 2-Hydroxy-N—[(R)-1-(2-naphthyl)ethyl]benzamide] gave an IC50 (SARS-CoV PLpro [1]) greater than 200 µM.
For `Cc1ccccc1C(=O)N[C@H](C)c1ccc2ccccc2c1` [Compound 1b, 2-Methyl-N—[(R)-1-(2-naphthyl)ethyl]benzamide], the inhibition at 100 µM (SARS-CoV PLpro [1]) was greater than 90% and the EC50 (SARS-CoV; [5]) was greater than 50 µM.
With `CCc1ccccc1C(=O)N[C@H](C)c1ccc2ccccc2c1` [Compound 4, 2-Ethyl-N—[(R)-1-(2-naphthyl)ethyl]benzamide] the IC50 (SARS-CoV PLpro [1]) was greater than 200 µM.
With `Cc1ccc([N+](=O)[O-])cc1C(=O)N[C@H](C)c1cccc2ccccc12` [Compound 5i, 2-Methyl-5-nitro-N—[(R)-1-(1-naphthyl)ethyl]benzamide] the IC50 (SARS-CoV PLpro [1]) was 7.3 ± 0.9 µM, the “fold decrease in activity compared to 5h” value (SARS-CoV PLpro [1]) was roughly 3 fold and the EC50 (SARS-CoV; [5]) was greater than 50 µM.
`Cc1cc([N+](=O)[O-])ccc1C(=O)NC(C)c1ccnc2ccccc12` (racemic) [Compound 51] was tested, and the IC50 (SARS-CoV PLpro [1]) was 3.5 µM.
For `C[C@@H](NC(=O)c1ccc(NC(=O)OC(C)(C)C)cc1)c1ccc2ccccc2c1` [Compound 8, 4-N^0-tert-Butoxycarbonylamino-N—[(R)-1-(2-naphthyl)ethyl]-benzamide], the IC50 (SARS-CoV PLpro [1]) was greater than 200 µM.
For `Cc1ccccc1C(=O)N[C@@H](C)c1ccc2ccccc2c1` [Compound 1a], the inhibition at 100 µM (SARS-CoV PLpro [1]) was 14%.
Molecule `COc1cccc(CNC(=O)C2CCN([C@H](C)c3cccc4ccccc34)CC2)c1` [Compound 64] has an IC50 (SARS-CoV PLpro [1]; read-out: IC50) of 0.34 µM and an EC50 (SARS-CoV; [5]) of 8 µM.

Reference: patent US20110269834A1 (priority 2008, published 2011)
